Molecules are shown by their SMILES.

Data set [1] is described as follows: Selectivity index, ratio of IC50 for rat L6 cells to IC50 for amastigote stage of Trypanosoma cruzi Tulahuen C2C4 expressing LacZ gene infected in rat L6 cells. Format: toxicity, cell-based. As to conditions: read-out: Ratio IC50.
Data set [2] has as its system Leishmania donovani. The data set can be described thus: Antileishmanial activity against axenic amastigote stage of Leishmania donovani MHOM/SD/1962/1S-Cl2d assessed as inhibition of parasite growth at 50 uM after 24 hrs by Alamar blue viability assay. In kind it is functional. Conditions: read-out: GI. On the technique in general: The colour change of resazurin is a common sign of viable cells or microbes.

Another data set deals with L6. The data set can be described thus: Cytotoxicity against rat L6 cells after 72 hrs by Alamar blue assay. In kind it is cell-based. Conditions: L6, 72 h.
The next data set relates to Trypanosoma cruzi. The experiment in a line: Antiparasitic activity against amastigote stage of Trypanosoma cruzi Tulahuen C2C4 expressing LacZ gene infected in rat L6 cells after 96 hrs by photometric analysis. Format: functional, organism-based. As to conditions: Tulahuen C2C4, L6, 96 h.
Data set [3] has as its system Leishmania donovani. The data set can be described thus: Antileishmanial activity against axenic amastigote stage of Leishmania donovani MHOM/SD/1962/1S-Cl2d assessed as inhibition of parasite growth at 15 uM after 24 hrs by Alamar blue viability assay. In kind it is functional. Conditions: read-out: GI.
Data set [4] relates to Leishmania donovani. The data set can be described thus: Antileishmanial activity against axenic amastigote stage of Leishmania donovani MHOM/SD/1962/1S-Cl2d assessed as inhibition of parasite growth at 5 uM after 24 hrs by Alamar blue viability assay. Conditions: read-out: GI. Format: functional.
The test system of data set [5] is Leishmania donovani. The data set can be described thus: Antileishmanial activity against axenic amastigote stage of Leishmania donovani MHOM/SD/1962/1S-Cl2d assessed as inhibition of parasite growth after 24 hrs by Alamar blue viability assay. In kind it is functional, organism-based.
Data set [6] can be described thus: Selectivity index, ratio of IC50 for human THP-1 cells to IC50 for Leishmania donovani MHOM/SD/1962/1S-Cl2d axenic amastigotes. In kind it is toxicity, cell-based. As to conditions: read-out: Ratio IC50.
Data set [7] is described as follows: Cytotoxicity against human THP1 cells after 24 hrs by Alamar blue viability assay. In kind it is cell-based. As to conditions: THP-1, 24 h.
Data set [8] deals with Leishmania donovani. The data set can be described thus: Antileishmanial activity against Leishmania donovani promastigotes infected in human THP1 cells assessed as inhibition of amastigote growth by luciferase assay. In kind it is functional, organism-based. As to conditions: THP-1.

With `CC(C)c1ccc2c(c1)CC[C@H]1[C@](C)(C(=O)N[C@H](Cc3ccccc3)C(=O)O)CCC[C@]21C`, the selectivity ratio in [1] was 2; in data set [6], 8. Besides, the inhibition of growth at 50 µM in the data set on Leishmania donovani [2] worked out at 98.3%. In addition, the IC50 in the data set with L6 came out at 60.6 µM; in the data set on Trypanosoma cruzi, 27.7 µM; with Leishmania donovani [5], 5.2 µM; in data set [7], 41.4 µM. Moreover, the inhibition of growth at 15 µM in the data set on Leishmania donovani [3] was 96.8%. Moreover, the inhibition of growth at 5 µM in the data set with Leishmania donovani [4] is 54.1%.

Consider `CC(C)c1ccc2c(c1)CC[C@H]1[C@](C)(C(=O)N[C@H](Cc3cccnc3)C(=O)O)CCC[C@]21C`, for which the selectivity ratio in data set [1] was 2. Moreover, the inhibition of growth at 50 µM in the data set on Leishmania donovani [2] was determined as 9.8%. For the same compound, the IC50 in the data set on L6 is 174 µM; with Trypanosoma cruzi it was 83.1 µM.

For the compound `COC(=O)[C@@H](CCSC)NC(=O)[C@]1(C)CCC[C@]2(C)c3ccc(C(C)C)cc3CC[C@@H]12`, the inhibition of growth at 50 µM with Leishmania donovani [2] amounted to 88.7%. Also, the inhibition of growth at 15 µM in the data set on Leishmania donovani [3] turned out to be 50.8%.

With `CC(C)c1ccc2c(c1)CC[C@H]1[C@](C)(C(=O)N[C@@H](CC3CCCCC3)C(=O)O)CCC[C@]21C`, the selectivity ratio in data set [1] amounted to 1; in data set [6], 24. In addition, the IC50 in the data set on Leishmania donovani [8] is 5 µM; in the data set with L6 it was 29.1 µM; in the data set with Trypanosoma cruzi, 22.8 µM; with Leishmania donovani [5] it was 1.7 µM; in [7] it was 40.5 µM. For the same compound, the inhibition of growth at 50 µM in the data set with Leishmania donovani [2] came out at 98.1%. For the same compound, the inhibition of growth at 15 µM in the data set with Leishmania donovani [3] is 92.2%. The inhibition of growth at 5 µM in the data set with Leishmania donovani [4] turned out to be 63.6%.

On to `COC(=O)CNC(=O)[C@]1(C)CCC[C@]2(C)c3ccc(C(C)C)cc3C(=O)C[C@@H]12`, for which the inhibition of growth at 50 µM in the data set with Leishmania donovani [2] was 37.1%.

For `COC(=O)CNC(=O)[C@]1(C)CCC[C@]2(C)c3ccc(C(C)C)cc3CC[C@@H]12`, in the data set on Leishmania donovani [2], the inhibition of growth at 50 µM came to 28.7%.

In the case of `CSCC[C@@H](NC(=O)[C@]1(C)CCC[C@]2(C)c3ccc(C(C)C)cc3CC[C@@H]12)C(=O)O`, the inhibition of growth at 50 µM in the data set on Leishmania donovani [2] was found to be 98%. In the data set on Leishmania donovani [3], the inhibition of growth at 15 µM amounted to 47%.

`COC(=O)[C@@H](Cc1ccc[n+]([O-])c1)NC(=O)[C@]1(C)CCC[C@]2(C)c3ccc(C(C)C)cc3CC[C@@H]12`: in [1], the selectivity ratio is 3. For the same compound, the inhibition of growth at 50 µM in the data set on Leishmania donovani [2] was found to be 27.1%. In addition, the half-inhibitory concentration (IC50) with L6 stood at 85.9 µM; with Trypanosoma cruzi, 32.7 µM.

Turning to `CC(C)c1ccc2c(c1)CC[C@H]1[C@](C)(C(=O)N[C@H](Cc3ccc[n+]([O-])c3)C(=O)O)CCC[C@]21C`, in the data set on Leishmania donovani [2], the inhibition of growth at 50 µM stood at 1.9%.

As to `CC[C@H](NC(=O)[C@]1(C)CCC[C@]2(C)c3ccc(C(C)C)cc3CC[C@@H]12)C(=O)OC`, in the data set on Leishmania donovani [2], the inhibition of growth at 50 µM was found to be 57.6%.

In the case of `COC(=O)[C@H](CC1CCCCC1)NC(=O)[C@]1(C)CCC[C@]2(C)c3ccc(C(C)C)cc3CC[C@@H]12`, the inhibition of growth at 50 µM in the data set on Leishmania donovani [2] came out at 43.2%.

For the compound `CC(C)c1ccc2c(c1)CC[C@H]1[C@](C)(C(=O)N[C@H](Cc3ccc(O)cc3)C(=O)O)CCC[C@]21C`, the inhibition of growth at 50 µM in the data set on Leishmania donovani [2] was found to be 96.1%. In addition, in the data set on Leishmania donovani [3], the inhibition of growth at 15 µM came to 9.8%.

In the case of `COC(=O)[C@H](Cc1ccccc1)NC(=O)[C@]1(C)CCC[C@]2(C)c3ccc(C(C)C)cc3CC[C@@H]12`, the inhibition of growth at 50 µM in the data set with Leishmania donovani [2] is 68.6%.

Take `CC(C)c1ccc2c(c1)CC[C@H]1[C@](C)(C(N)=O)CCC[C@]21C`: the inhibition of growth at 50 µM in the data set on Leishmania donovani [2] amounted to 55.2%.

Consider `COC(=O)[C@@H](Cc1c[nH]c2ccccc12)NC(=O)[C@]1(C)CCC[C@]2(C)c3ccc(C(C)C)cc3CC[C@@H]12`, for which the inhibition of growth at 50 µM in the data set with Leishmania donovani [2] came to 46.9%.

In the case of `CC(C)c1ccc2c(c1)CC[C@H]1[C@](C)(C(=O)NCC(=O)O)CCC[C@]21C`, the inhibition of growth at 50 µM with Leishmania donovani [2] was found to be 69.3%.

Turning to `CC(C)c1ccc2c(c1)CC[C@H]1[C@](C)(C(=O)N[C@@H](Cc3ccccc3)C(=O)O)CCC[C@]21C`, the values for the selectivity ratio in data set [1] and in [6] were 1 and 33, respectively. Besides, the IC50 is 9 µM in the data set on Leishmania donovani [8]; 45.4 µM in the data set with L6; 33.1 µM with Trypanosoma cruzi; 2.5 µM in the data set on Leishmania donovani [5]; 82.2 µM in data set [7]. Besides, the inhibition of growth at 50 µM in the data set on Leishmania donovani [2] stood at 98.1%. For the same compound, the inhibition of growth at 15 µM with Leishmania donovani [3] turned out to be 77.6%. The inhibition of growth at 5 µM with Leishmania donovani [4] came out at 53.1%.

Take `COC(=O)[C@@H](Cc1ccc(O)cc1)NC(=O)[C@]1(C)CCC[C@]2(C)c3ccc(C(C)C)cc3CC[C@@H]12`: the inhibition of growth at 50 µM with Leishmania donovani [2] stood at 98.9%. For the same compound, the inhibition of growth at 15 µM in the data set on Leishmania donovani [3] worked out at 94.7%. Moreover, the inhibition of growth at 5 µM with Leishmania donovani [4] came out at 38.8%. The IC50 was determined as 11.1 µM with Leishmania donovani [5] and 21.7 µM in [7]. For the same compound, the selectivity ratio in data set [6] amounted to 2.

As for `COC(=O)[C@@H](Cc1ccccc1)NC(=O)[C@]1(C)CCC[C@]2(C)c3ccc(C(C)C)cc3CC[C@@H]12`, the inhibition of growth at 50 µM with Leishmania donovani [2] was determined as 77.5%. Besides, in the data set on Leishmania donovani [3], the inhibition of growth at 15 µM was 51.5%.

Consider `CC(C)c1ccc2c(c1)CC[C@H]1[C@](C)(C(=O)N[C@H](C(=O)O)C(C)C)CCC[C@]21C`, for which the inhibition of growth at 50 µM in the data set on Leishmania donovani [2] was found to be 90.6%. Besides, the inhibition of growth at 15 µM with Leishmania donovani [3] came out at 10.9%.

On to `CC(C)c1ccc2c(c1)CC[C@H]1[C@](C)(C(=O)N[C@H](Cc3c[nH]c4ccccc34)C(=O)O)CCC[C@]21C`, for which, in the data set on Leishmania donovani [2], the inhibition of growth at 50 µM came out at 98.3%. Besides, the inhibition of growth at 15 µM in the data set on Leishmania donovani [3] came out at 53.9%.

For `CC(C)c1ccc2c(c1)CC[C@H]1[C@](C)(C(=O)O)CCC[C@]21C` [DEHYDROABIETIC ACID], the selectivity ratio in [1] came out at 1. Further, the inhibition of growth at 50 µM with Leishmania donovani [2] amounted to 91.1%. Moreover, the 50% inhibitory concentration (IC50) in the data set on L6 stood at 151 µM; in the data set with Trypanosoma cruzi, 101 µM. In the data set with Leishmania donovani [3], the inhibition of growth at 15 µM was 59.2%.

For the compound `CC(C)c1ccc2c(c1)/C(=N\O)C[C@H]1[C@](C)(C(=O)N[C@@H](CC3CCCCC3)C(=O)O)CCC[C@]21C`, in the data set on Leishmania donovani [2], the inhibition of growth at 50 µM stood at 97.7%. Moreover, the inhibition of growth at 15 µM in the data set with Leishmania donovani [3] worked out at 52.3%.

For the compound `COC(=O)[C@H](CC1CCCCC1)NC(=O)[C@]1(C)CCC[C@]2(C)c3ccc(C(C)C)cc3/C(=N\O)C[C@@H]12`, the selectivity ratio in data set [1] stood at 2; in data set [6], 7. Also, the inhibition of growth at 50 µM in the data set with Leishmania donovani [2] amounted to 90.8%. Also, the 50% inhibitory concentration (IC50) came to 13.5 µM in the data set on L6, 5.8 µM in the data set on Trypanosoma cruzi, 5.6 µM in the data set with Leishmania donovani [5] and 37.2 µM in data set [7]. For the same compound, the inhibition of growth at 15 µM in the data set on Leishmania donovani [3] was 85.8%. Also, the inhibition of growth at 5 µM in the data set on Leishmania donovani [4] worked out at 52.9%.

Regarding `COC(=O)[C@@H](NC(=O)[C@]1(C)CCC[C@]2(C)c3ccc(C(C)C)cc3CC[C@@H]12)C(C)C`, the inhibition of growth at 50 µM in the data set on Leishmania donovani [2] was 57.1%.

Turning to `COC(=O)[C@H](CC(C)C)NC(=O)[C@]1(C)CCC[C@]2(C)c3ccc(C(C)C)cc3CC[C@@H]12`, in the data set with Leishmania donovani [2], the inhibition of growth at 50 µM stood at 64.9%.

In the case of `CC[C@H](NC(=O)[C@]1(C)CCC[C@]2(C)c3ccc(C(C)C)cc3CC[C@@H]12)C(=O)O`, the inhibition of growth at 50 µM with Leishmania donovani [2] is 85%. In addition, in the data set on Leishmania donovani [3], the inhibition of growth at 15 µM was determined as 5.9%.

With `CC(C)C[C@H](NC(=O)[C@]1(C)CCC[C@]2(C)c3ccc(C(C)C)cc3CC[C@@H]12)C(=O)O`, the inhibition of growth at 50 µM in the data set on Leishmania donovani [2] was 91.2%. The inhibition of growth at 15 µM in the data set with Leishmania donovani [3] came to 34.8%.

One may read the IC50 as the midpoint of a concentration-inhibition curve.

For the origin of these results see ChEMBL document CHEMBL3797148, “Antiprotozoal activity of dehydroabietic acid derivatives against Leishmania donovani and Trypanosoma cruzi” (Medchemcomm, 2016).
